Earlier results, collected in patent US7288142B2, “Black dyes composition for ink-jet inks” (Everlight USA, Inc., priority 2005, dated 2007).

What was measured:
[1] = as ink-jet black dye, prior art
[2] = as ink-jet black dye, prior art; remark: listed apart in the source

Nc1cc2c(O)c(N=Nc3ccc(N=Nc4ccc(S(=O)(=O)[O-])cc4)c4ccc(S(=O)(=O)[O-])cc34)c(S(=O)(=O)[O-])cc2cc1S(=O)(=O)[O-].[Na+].[Na+].[Na+].[Na+] [C.I. Food Black 2]
light-fastness [1]: poor

C.I. Direct Black 168
light-fastness [1]: good | solubility [2]: low
